Assay results as given in patent US20020137929A1, “1 - (3-heterocyclylphenyl) isothiourea, -isourea, -guanidine and -amidine herbicidal agents” (Intellectual Property Department, BASF Aktiengesellschaft, priority 1998, published 2002).

Legend:
SETVI (Foxtail, Green) = assay: Preemergence herbicidal evaluation; format: in vivo, Setaria viridis; conditions: rated 4-5 weeks after treatment
Method in brief: (§1)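 Seeds were mixed with potting soil and planted on about one inch of soil, then sprayed with test compound in aqueous acetone at about 0.0156 to 0.500 kg per hectare. Plants grew under standard greenhouse care and were visually rated 0-9 against untreated controls 4-5 weeks post-treatment.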

[1] = test system: SAGPY (Arrowhead (Pygmaea)); assay: Preemergence weed control under flooded paddy conditions; format: in vivo, Sagittaria pygmaea; conditions: rated 3-4 weeks after treatment
Method in brief: (§2)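 Visual injury scored 0-9 against control three to four weeks post-treatment, greenhouse-grown. Application: acetone/water (50/50) solutions dosed directly into flood water (1.5-3 cm over silt loam, planted top 0.5 cm), roughly 0.0313 to 0.500 kg/ha active ingredient.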

CASOB (Sicklepod) = assay: Preemergence herbicidal evaluation; format: in vivo, Cassia obtusifolia; conditions: rated 4-5 weeks after treatment
Method in brief: as §1

ECHCG (Barnyardgrass) = assay: Preemergence herbicidal evaluation; format: in vivo, Echinochloa crus-galli; conditions: rated 4-5 weeks after treatment
Method in brief: as §1

AMBEL (Ragweed, Common) [2] = assay: Preemergence herbicidal evaluation; format: in vivo, Ambrosia artemisifolia; conditions: rated 4-5 weeks after treatment
Method in brief: as §1

AMBEL (Ragweed, Common) [3] = assay: Postemergence herbicidal evaluation; format: in vivo, Ambrosia artemisifolia; conditions: postemergence
Method in brief: (§3)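 Visual 0–9 rating versus control (stand, vigor, malformation, size, chlorosis, overall appearance), taken four to five weeks post-spray. Two-week-old seedlings received roughly 0.0156–0.500 kg/ha active in acetone/water (50/50) with 0.5% TWEEN 20 via nozzle at 40 psi.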

[4] = test system: ECHORC (Watergrass (Calif.)); assay: Postemergence weed control under flooded paddy conditions; format: in vivo, Echinochloa oryzoides; conditions: postemergence weeds, 3-4 weeks after treatment
Method in brief: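 With weeds 3 to 5 cm tall and rice at the 1.5 to 2.5 leaf stage, containers were flooded and water held 1.5 to 3 cm above soil. Compounds in 50/50 v/v aqueous/acetone went into the flood water at about 0.0313 to 0.500 kg/ha a.i. Effects were visually rated 0–9 against controls after three to four weeks in the greenhouse.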

[5] = test system: IPOHE (Morningglory, Ivyleaf); assay: Postemergence herbicidal evaluation; format: in vivo, Ipomoea hederacea; conditions: postemergence
Method in brief: as §3

[6] = test system: GLXMAW (Soybean, Williams); assay: Postemergence herbicidal evaluation; format: in vivo, Glycine max, (L.) Merr. cv Williams; conditions: postemergence
Method in brief: as §3

ZEAMX (Corn, Field) = assay: Postemergence herbicidal evaluation; format: in vivo, Zea mays; conditions: postemergence
Method in brief: as §3

[7] = test system: GLXMAW (Soybean, Williams); assay: Preemergence herbicidal evaluation; format: in vivo, Glycine max, (L.) Merr. cv Williams; conditions: rated 4-5 weeks after treatment
Method in brief: as §1

CYPSE (Flatsedge) = assay: Preemergence weed control under flooded paddy conditions; format: in vivo, Cyperus serotinus; conditions: rated 3-4 weeks after treatment
Method in brief: as §2

ABUTH (Velvetleaf) = assay: Preemergence herbicidal evaluation; format: in vivo, Abutilon theophrasti; conditions: rated 4-5 weeks after treatment
Method in brief: as §1

GALAP (Galium) = assay: Preemergence herbicidal evaluation; format: in vivo, Galium aparine; conditions: rated 4-5 weeks after treatment
Method in brief: as §1

## CCOC(=O)/C=C1/S/C(=N/c2cc(-n3c(=O)cc(C(F)(F)F)n(C)c3=O)c(F)cc2Cl)N(CC(=O)OCC)C1=O [Compound 14]
SETVI (Foxtail, Green); rate 0.0313 kg/ha
  SETVI preemergence herbicidal rating: 0.5
SETVI (Foxtail, Green); rate 0.0625 kg/ha
  SETVI preemergence herbicidal rating: 0.5
SETVI (Foxtail, Green); rate 0.1250 kg/ha
  SETVI preemergence herbicidal rating: 6.5
SETVI (Foxtail, Green); rate 0.2500 kg/ha
  SETVI preemergence herbicidal rating: 9.0
SETVI (Foxtail, Green); rate 0.5000 kg/ha
  SETVI preemergence herbicidal rating: 9.0
[1]; 0.0313 kg/ha
  Herbicidal rating SAGPY: 0.0
[1]; 0.0625 kg/ha
  Herbicidal rating SAGPY: 0.0
[1]; 0.1250 kg/ha
  Herbicidal rating SAGPY: 0.0
[1]; 0.2500 kg/ha
  Herbicidal rating SAGPY: 0.0
CASOB (Sicklepod); rate 0.0313 kg/ha
  CASOB preemergence herbicidal rating: 0.0
CASOB (Sicklepod); rate 0.0625 kg/ha
  CASOB preemergence herbicidal rating: 1.0
CASOB (Sicklepod); rate 0.1250 kg/ha
  CASOB preemergence herbicidal rating: 1.5
CASOB (Sicklepod); rate 0.2500 kg/ha
  CASOB preemergence herbicidal rating: 2.0
CASOB (Sicklepod); rate 0.5000 kg/ha
  CASOB preemergence herbicidal rating: 5.0
ECHCG (Barnyardgrass); rate 0.0313 kg/ha
  ECHCG preemergence herbicidal rating: 0.0
ECHCG (Barnyardgrass); rate 0.0625 kg/ha
  ECHCG preemergence herbicidal rating: 0.0
ECHCG (Barnyardgrass); rate 0.1250 kg/ha
  ECHCG preemergence herbicidal rating: 1.0
ECHCG (Barnyardgrass); rate 0.2500 kg/ha
  ECHCG preemergence herbicidal rating: 3.0
ECHCG (Barnyardgrass); rate 0.5000 kg/ha
  ECHCG preemergence herbicidal rating: 6.0
AMBEL (Ragweed, Common) [2]; rate 0.0313 kg/ha
  AMBEL preemergence herbicidal rating: 0.0
AMBEL (Ragweed, Common) [2]; rate 0.0625 kg/ha
  AMBEL preemergence herbicidal rating: 1.0
AMBEL (Ragweed, Common) [2]; rate 0.1250 kg/ha
  AMBEL preemergence herbicidal rating: 6.5
AMBEL (Ragweed, Common) [2]; rate 0.2500 kg/ha
  AMBEL preemergence herbicidal rating: 9.0
AMBEL (Ragweed, Common) [2]; rate 0.5000 kg/ha
  AMBEL preemergence herbicidal rating: 9.0
AMBEL (Ragweed, Common) [3]; rate 0.0156 kg/ha
  AMBEL herbicidal rating: 9.0
AMBEL (Ragweed, Common) [3]; rate 0.0313 kg/ha
  AMBEL herbicidal rating: 9.0
AMBEL (Ragweed, Common) [3]; rate 0.0625 kg/ha
  AMBEL herbicidal rating: 9.0
AMBEL (Ragweed, Common) [3]; rate 0.1250 kg/ha
  AMBEL herbicidal rating: 9.0
[4]; rate 0.0313 kg/ha
  Herbicidal rating ECHORC: 0.8
[4]; rate 0.0625 kg/ha
  Herbicidal rating ECHORC: 2.3
[4]; rate 0.1250 kg/ha
  Herbicidal rating ECHORC: 3.8
[4]; rate 0.2500 kg/ha
  Herbicidal rating ECHORC: 7.0
[5]; rate 0.0156 kg/ha
  IPOHE herbicidal rating: 9.0
[5]; rate 0.0313 kg/ha
  IPOHE herbicidal rating: 9.0
[5]; rate 0.0625 kg/ha
  IPOHE herbicidal rating: 9.0
[5]; rate 0.1250 kg/ha
  IPOHE herbicidal rating: 9.0
[6]; rate 0.0156 kg/ha
  GLXMAW herbicidal rating: 6.0
[6]; rate 0.0313 kg/ha
  GLXMAW herbicidal rating: 8.0
[6]; rate 0.0625 kg/ha
  GLXMAW herbicidal rating: 9.0
[6]; rate 0.1250 kg/ha
  GLXMAW herbicidal rating: 8.5
ZEAMX (Corn, Field); rate 0.0156 kg/ha
  ZEAMX herbicidal rating: 7.0
ZEAMX (Corn, Field); rate 0.0313 kg/ha
  ZEAMX herbicidal rating: 7.0
ZEAMX (Corn, Field); rate 0.0625 kg/ha
  ZEAMX herbicidal rating: 7.5
ZEAMX (Corn, Field); rate 0.1250 kg/ha
  ZEAMX herbicidal rating: 7.5
[7]; rate 0.0313 kg/ha
  GLXMAW preemergence herbicidal rating: 0.0
[7]; rate 0.0625 kg/ha
  GLXMAW preemergence herbicidal rating: 0.0
[7]; rate 0.1250 kg/ha
  GLXMAW preemergence herbicidal rating: 2.0
[7]; rate 0.2500 kg/ha
  GLXMAW preemergence herbicidal rating: 3.0
[7]; rate 0.5000 kg/ha
  GLXMAW preemergence herbicidal rating: 6.0
CYPSE (Flatsedge); 0.0313 kg/ha
  Herbicidal rating CYPSE: 0.0
CYPSE (Flatsedge); 0.0625 kg/ha
  Herbicidal rating CYPSE: 0.0
CYPSE (Flatsedge); 0.1250 kg/ha
  Herbicidal rating CYPSE: 3.0
CYPSE (Flatsedge); 0.2500 kg/ha
  Herbicidal rating CYPSE: 0.0
ABUTH (Velvetleaf); rate 0.0313 kg/ha
  ABUTH preemergence herbicidal rating: 1.0
ABUTH (Velvetleaf); rate 0.0625 kg/ha
  ABUTH preemergence herbicidal rating: 2.0
ABUTH (Velvetleaf); rate 0.1250 kg/ha
  ABUTH preemergence herbicidal rating: 9.0
ABUTH (Velvetleaf); rate 0.2500 kg/ha
  ABUTH preemergence herbicidal rating: 9.0
ABUTH (Velvetleaf); rate 0.5000 kg/ha
  ABUTH preemergence herbicidal rating: 9.0
GALAP (Galium); rate 0.0313 kg/ha
  GALAP preemergence herbicidal rating: 0.0
GALAP (Galium); rate 0.0625 kg/ha
  GALAP preemergence herbicidal rating: 0.0
GALAP (Galium); rate 0.1250 kg/ha
  GALAP preemergence herbicidal rating: 9.0
GALAP (Galium); rate 0.2500 kg/ha
  GALAP preemergence herbicidal rating: 9.0
